We go through 5 substances from patent US20220288223A1, “ACTIVATABLE SPECIFIC BINDING MEMBER COMPLEXES, AND METHODS OF MAKING AND USING SAME” (The Regents of the University of California, priority 2019, published 2022).

Assay [1] has as its system head and neck cancer cell line (Cal-27). The experiment in a line: Immunohistocytochemistry, HRP-dependent DAB staining (FIG. 4). The assay is classed as cell-based.
Assay [2] deals with Thrombin (Homo sapiens, UniProt P00734). The experiment in a line: Gel electrophoresis of PA-cetuximab after thrombin treatment (FIG. 5). The following applies: thrombin activation. Type of assay: biochemical. An excerpt: Protease cleavage of blocked PA-cetuximab causes size change as CDR blocking domains is proteolytically released from cetuximab panibody. Lane 1 is a protein marker.

Assay [3] concerns the target EGFR (Homo sapiens, UniProt P00533). The experiment in a line: EGFR binding curve of PA-cetuximab with and without thrombin (FIG. 4).
Assay [4] deals with orthotopic Cal-27 xenograft tumors. The experiment in a line: In vivo ratiometric fluorescence imaging of RACPPs in orthotopic tongue tumor model. The following applies: mice, orthotopic Cal-27 tongue tumors, IV injection. An excerpt:
FIG. 2. In vivo ratiometric fluorescence imaging of RACPPs in orthotopic tongue tumor model (Cal27) for protease selective probes.

On to “(Acety-QGQSGQCISPRGCPDGPYVMY-PEG6-(Nle-TPRSFL)-PEG24)n-cetuximab [PA-cetuximab]”, for which the “Binding to Cal-27 cells (DAB staining on membranes)” value in assay [1] (FIG. 4 panel C, equivalent with no antibody control (E)) is given as “blocks binding”; in assay [1] (FIG. 4 panel D), “binding”. Further, the “Binding to cells (Cal-27) that express EGFR” value in assay [1] (after thrombin treatment) was “allow binding”. In assay [2], the “Change in size of inhibited complex on acrylamide gel” value is on record as “size shift”. The EGFR binding entry is reported as “allow binding” in assay [3] (after thrombin treatment, EGFR protein) and “blocked” in assay [3] (without thrombin (solid line)).
Take “KLRFSQK [Cy5/Cy7 RACPP, cathepsin cleavable probe]”: the “Ratiometric fluorescence labeling of tumor versus adjacent tissue” value in assay [4] is “very selective targeting to cancerous tongue”.
Consider PLGC(me)AG, for which the “Ratiometric fluorescence labeling of tumor versus adjacent tissue” value in assay [4] is recorded as “good cleavage in the tumor but also had high signal in adjacent tongue”.
Same read-out and setting: the entry for TGRAAA is “high level localized uptake at the center of the tumor”; for YGRAAA it is “tumor specific labeling at high intensity with very low labeling of adjacent tissue”.
